The source of these data is patent US6759538B2, “Substituted diphenyl heterocycles useful for treating HCV infection” (priority 2001, dated 2004).

Each structure is given as a SMILES string. pIC50: −log10 of the molar value. Some results are limits rather than exact numbers.

The target of data set [1] is HCV replicon. The data set is described as follows: HCV replicon assay (luciferase). Format: cell-based, Hepatitis C virus (HCV). Particulars: 5-2 Luc replicon cells, 24 hours with compound, luciferase emission; first symbol of Replicon/Western.
Data set [2] concerns HCV nonstructural protein NS5A. The data set is described as follows: Quantitative Western blot assay. Format: cell-based, Hepatitis C virus (HCV). The note with it: 9-13 replicon cells, 48 hours with compound, second symbol of Replicon/Western. As to the method:
Alternatively, the inhibitory activity of the compounds can be confirmed using a quantitative Western immunoblot assay utilizing antibodies specific for HCV non-structural proteins, such as NS3, NS4A NS5A and NS5B. In one embodiment of this assay, replicon cells are treated with varying concentrations of test compound to determine the concentration of test compound that yields a 50% reduction in the amount of a non-structural protein produced as compared to a control sample (IC50). A single non-structural protein may be quantified or multiple non-structural proteins may be quantified. Antibodies suitable for carrying out such immunoblot assays are available commercially (e.g., from BIODESIGN International, Saco, Me.).
Certain exemplary compounds of the invention were also tested for their ability to inhibit HCV replication using a quantitative Western blot analysis with antibodies specific for the HCV nonstructural protein NS5A. Actively dividing 9-13 replicon cells were seeded into 6-well plates at a density of 1×10^5 cells/well in a volume of 2 ml/well and incubated at 37° C. and 5% CO2 for 24 hours. Various concentrations of test compounds (in a volume of 10 ul) were added to the wells and the cells incubated for another 48 hours. Protein samples were prepared from the cultured cells, resolved on a SDS-PAGE gel and transferred to a nitrocellulose membrane. The membrane was blocked with 5% non-fat milk in PBS for 1 hour at room temperature. Primary antibody (anti NS5A antibody; BIODESIGN International, Saco, Me.) incubation was performed for 1 hour at room temperature, after which the membrane was washed 3 times (for 15 min per time) with PBST (PBS plus 0.1% Tween 20). Horseradish peroxidase conjugated secondary antibody incubation was performed for 1 hour at room temperature and the membrane was washed 3 times (for 15 min per time) with PBST. The membrane was then soaked in substrate solution (Pierce) and exposed to a film or quantified using an imager. In this assay, the amount of test compound that yielded a 50% reduction in the amount of NS5A protein translated as compared to a control sample (IC50) was determined.

Data set [3] deals with HCV virus. The data set can be described thus: HCV infection assay. In kind it is cell-based, Hepatitis C virus (HCV). The note with it: hepatocyte cells from a donor, inoculated Day 3, RNA Day 8; read-out: IC50 HCV infection assay (HCV RNA, Taqman). The text has this:
Alternatively, the inhibitory activity of the compounds may be confirmed in an HCV infection assay, such as the HCV infection assay described in Fournier et al., 1998, J. Gen. Virol. 79(10):2367:2374, the disclosure of which is incorporated herein by reference. In one embodiment of this assay, the amount of test compound that yields a 50% reduction in HCV replication or proliferation as compared to a control cell (IC50) may be determined. The extent of HCV replication may be determined by quantifying the amount of HCV RNA present in HCV infected cells. A specific method for carrying out such an assay is provided in the Examples section.
The activity of Compound 9 was also confirmed in an HCV infection assay. The assay was carried out essentially as described in Fournier et al., 1998, J. Gen. Virol. 79:2367-2374. Briefly, hepatocyte cells from a doner were plated on Day 1. On Day 3, the cells were inoculated with HCV virus and test compound was added. On Day 5, the medium was changed and test compound was added. On Day 7, the medium was changed and test compound was added. On Day 8, the RNA was isolated and the HCV RNA quantified using a Taqman assay.
On the technique in general: Quantitative PCR measures a nucleic acid by following its amplification.

Data set [4] can be described thus: Safety studies in rats, subcutaneous and intravenous administration. The method, then:
The safety of compound 9 was evaluated in rats by both subcutaneous and intravenous administration in several experiments. […] The experiments performed are summarized below.
In a second study compound 9 was administered by the IV route at doses of 10 and 30 mg/kg in 100% PEG. The volume administered for the 10 mg/kg dose was 0.67 ml/kg/day and volume given the 30 mg/kg group was 2 ml/kg/day. In addition, there were two control groups. One control received 100% PEG alone at a volume of 2 ml/kg/day while the other was an untreated sham control group. […] Parameters of study included: clinical observations, body weights, hematology, clinical chemistry, gross necropsy, organ weights, bone marrow assessment and histopathology of selected organs.
A vehicle control group received the 100% PEG alone at the same volume. Groups comprised 3 males and 3 females each. Before reducing the dose to 10 and 30 mg/kg two rats received 100 mg/kg IV at a volume of 1 ml/kg. […] Parameters of study included: clinical observations, body weights, hematology, clinical chemistry, gross necropsy, organ weights and histopathology of selected organs (including injection sites).

A short description of data set [5]: Pharmacokinetics, plasma levels with liposome suspension vehicles. Format: in vivo, rats, monkeys and chimpanzees. Particulars: subcutaneous, liposome suspension vehicles: 5 mg/ml in water with 100 or 200 mg/ml lecithin, or 100 mg/ml lecithin and 5 mg/ml cholesterol. The method, then: The pharmacokinetic properties of compound 9 were calculated in rats, monkeys and chimpanzees using the intravenous and subcutaneous routes of administration with a variety of different delivery vehicles.

Data set [6] can be described thus: Toxicokinetic determinations in rats. The note with it: rat.

Usually pIC50 stands for the negative decadic logarithm of the IC50, by convention in mol/L. By NOAEL is commonly meant the highest tested level that showed no adverse finding. With `O=C(Nc1cccc(-c2cc(-c3c(Cl)cccc3Cl)no2)c1)C(Cl)Cl` [Compound 9, 2,2-Dichloro-N-[3-[3-(2,6-dichlorophenyl)-5-isoxazolyl]phenyl] Acetamide], the pIC50 in data set [1] is not below 5.00. Moreover, the pIC50 in data set [2] is not below 5.00. Further, the pIC50 in data set [3] was more than 5.00. Also, the “other findings, second study” value in data set [4] (IV 10 and 30 mg/kg, 7 days) was “no untoward findings”. In data set [4] (Sprague Dawley rats, SC and IV, dose escalation), the “well tolerated dose, first study” value is recorded as not above 30 mg/kg. In addition, the “clinical signs at IV 60 mg/kg” value in data set [4] (first study, Day 5, IV 60 mg/kg in 100% PEG) is “immediate clinical signs (collapsing, thrashing, dyspnea and reddish discolored urine) were observed”. The “time for symptoms to abate” value in data set [4] (first study, IV 60 mg/kg) was not above 1 h. Moreover, in data set [4] (rat, IV, 7 days), the “NOAEL (no observed adverse effect level)” value is 30 mg/kg. Besides, in data set [4] (rat, intravenous, 14-days), the NOAEL is recorded as 30 mg/kg. Further, in data set [4] (rats, subcutaneous and intravenous), the well tolerated dose is listed as not above 30 mg/kg/day. The “hematology finding at 30 mg/kg” value in data set [4] (second study, IV, 100% PEG, 7 days, relative to untreated control but not vehicle control) is “very slight decreases in red blood cells, hemoglobin and hematocrit”. Further, the necropsy findings result in data set [4] (third study, IV 10 and 30 mg/kg) was “no gross or microscopic morphological changes”. For the same molecule, in data set [4] (third study, IV 10 and 30 mg/kg, versus vehicle control), the “clinical observations, body weights, hematology, clinical chemistry, organ weights” value is “unaffected by treatment”. Further, the “mortality at 100 mg/kg IV” value in data set [4] (third study, two rats, 100 mg/kg IV, 1 ml/kg) was “Both animals died within a minute or two of dosing”. For the same molecule, in data set [5], the plasma levels entry was “Sustained plasma levels were achieved”. Also, in data set [6] (IV), the T1/2 entry was “about 5 minutes”; the “exposure, IV route” value is recorded as “high exposure”; the “persistence of measurable compound” value is “still apparent after 2 hours”. Moreover, in data set [6] (SC), the Tmax entry was “about 30 minutes”; the “exposure, subcutaneous route” value is given as “much lower exposure”; the persistence of exposure entry is given as “remains sustained through 2 hours post-dosing”.
